Structures are written as SMILES.

The experiment can be described thus: Effect on rate of GTP hydrolysis in the GTP binding protein ras p21.
Consider `CCC[C@H](N)C(=O)O`, for which the krel was determined as 0.98.

`CNC[C@H](N)C(=O)O` yielded a krel of 1.

For `C[C@H](N)C(=O)O`, the krel amounted to 1.04.

Consider `CC(C)[C@H](N)C(=O)O`, for which the krel stood at 1.02.

Source of the values: ChEMBL document CHEMBL1130808, “Prediction of the GTPase activities by using the semiempirical molecular orbital theory” (Bioorg Med Chem Lett, 1998).
